{"source": "PubChem BioAssay (NCI)", "assay_in_all_cases": "inhibition of tumour cell growth, NCI panel, 48 h", "key": {"[1]": {"tested_on": "BT-549 breast"}, "[2]": {"tested_on": "CAKI-1 renal"}, "[3]": {"tested_on": "HCT-116 colon"}, "[4]": {"tested_on": "NCI/ADR-RES ovarian"}, "[5]": {"tested_on": "OVCAR-4 ovarian"}, "[6]": {"tested_on": "PC-3 prostate"}, "[7]": {"tested_on": "SK-MEL-2 melanoma"}, "[8]": {"tested_on": "SR leukemia"}, "[9]": {"tested_on": "TK-10 renal"}, "[10]": {"tested_on": "UACC-62 melanoma"}}, "note": "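Where inhibition never reached the appropriate level, the endpoint shown equals the highest concentration tested. Otherwise, values were interpolated linearly from a five-concentration, 48-hour dose response in 96-well plates. GI50 is the concentration that inhibits growth by half. TGI: concentration producing complete growth inhibition.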"}
{"smiles": "N#C/C(=C\\c1cc(Cl)cc(Cl)c1)c1ccccn1", "values": [{"measurement": "TGI", "setting": "[1]", "result": 48.7, "unit": "µM"}, {"measurement": "TGI", "setting": "[2]", "result": "> 100", "unit": "µM"}, {"measurement": "TGI", "setting": "[3]", "result": "> 100", "unit": "µM"}, {"measurement": "TGI", "setting": "[4]", "result": "> 100", "unit": "µM"}, {"measurement": "TGI", "setting": "[5]", "result": "> 100", "unit": "µM"}, {"measurement": "TGI", "setting": "[6]", "result": "> 100", "unit": "µM"}, {"measurement": "TGI", "setting": "[7]", "result": "> 100", "unit": "µM"}, {"measurement": "TGI", "setting": "[8]", "result": "> 100", "unit": "µM"}, {"measurement": "TGI", "setting": "[9]", "result": "> 100", "unit": "µM"}, {"measurement": "TGI", "setting": "[10]", "result": "> 100", "unit": "µM"}]}
{"smiles": "CCN(C(=O)c1cc(F)ccc1Oc1cncnc1N1CC2(CCN(CC3CCC(NS(=O)(=O)CC)CC3)CC2)C1)C(C)C", "note": "(stereo not given)", "values": [{"measurement": "GI50", "setting": "[1]", "result": "> 100", "unit": "µM"}, {"measurement": "TGI", "setting": "[1]", "result": "> 100", "unit": "µM"}, {"measurement": "GI50", "setting": "[2]", "result": "> 100", "unit": "µM"}, {"measurement": "TGI", "setting": "[2]", "result": "> 100", "unit": "µM"}, {"measurement": "GI50", "setting": "[3]", "result": "> 100", "unit": "µM"}, {"measurement": "TGI", "setting": "[3]", "result": "> 100", "unit": "µM"}, {"measurement": "GI50", "setting": "[4]", "result": "> 100", "unit": "µM"}, {"measurement": "TGI", "setting": "[4]", "result": "> 100", "unit": "µM"}, {"measurement": "GI50", "setting": "[5]", "result": "> 100", "unit": "µM"}, {"measurement": "TGI", "setting": "[5]", "result": "> 100", "unit": "µM"}, {"measurement": "GI50", "setting": "[6]", "result": "> 100", "unit": "µM"}, {"measurement": "TGI", "setting": "[6]", "result": "> 100", "unit": "µM"}, {"measurement": "GI50", "setting": "[7]", "result": "> 100", "unit": "µM"}, {"measurement": "TGI", "setting": "[7]", "result": "> 100", "unit": "µM"}, {"measurement": "GI50", "setting": "[8]", "result": "> 100", "unit": "µM"}, {"measurement": "TGI", "setting": "[8]", "result": "> 100", "unit": "µM"}, {"measurement": "GI50", "setting": "[9]", "result": "> 100", "unit": "µM"}, {"measurement": "TGI", "setting": "[9]", "result": "> 100", "unit": "µM"}, {"measurement": "GI50", "setting": "[10]", "result": "> 100", "unit": "µM"}, {"measurement": "TGI", "setting": "[10]", "result": "> 100", "unit": "µM"}]}
{"smiles": "O=C(NCc1ccc(Cn2c(=O)sn(-c3ccccc3)c2=O)cc1)OCc1ccc2c(Br)cc(Br)c(O)c2n1", "values": [{"measurement": "GI50", "setting": "[1]", "result": 0.614, "unit": "µM"}, {"measurement": "TGI", "setting": "[1]", "result": 1.99, "unit": "µM"}, {"measurement": "GI50", "setting": "[2]", "result": 0.404, "unit": "µM"}, {"measurement": "TGI", "setting": "[2]", "result": 1.67, "unit": "µM"}, {"measurement": "GI50", "setting": "[3]", "result": 0.141, "unit": "µM"}, {"measurement": "TGI", "setting": "[3]", "result": 0.328, "unit": "µM"}, {"measurement": "GI50", "setting": "[4]", "result": 1.2, "unit": "µM"}, {"measurement": "TGI", "setting": "[4]", "result": 7.06, "unit": "µM"}, {"measurement": "GI50", "setting": "[5]", "result": 0.695, "unit": "µM"}, {"measurement": "TGI", "setting": "[5]", "result": 1.96, "unit": "µM"}, {"measurement": "GI50", "setting": "[6]", "result": 0.727, "unit": "µM"}, {"measurement": "TGI", "setting": "[6]", "result": 2.18, "unit": "µM"}, {"measurement": "GI50", "setting": "[7]", "result": 1.34, "unit": "µM"}, {"measurement": "TGI", "setting": "[7]", "result": 2.82, "unit": "µM"}, {"measurement": "GI50", "setting": "[8]", "result": 0.376, "unit": "µM"}, {"measurement": "TGI", "setting": "[8]", "result": "> 100", "unit": "µM"}, {"measurement": "GI50", "setting": "[9]", "result": 0.404, "unit": "µM"}, {"measurement": "TGI", "setting": "[9]", "result": 1.39, "unit": "µM"}, {"measurement": "GI50", "setting": "[10]", "result": 1.03, "unit": "µM"}, {"measurement": "TGI", "setting": "[10]", "result": 2.24, "unit": "µM"}]}
{"smiles": "CC(=O)O[C@]1(C(C)=O)CC[C@H]2[C@@H]3C=C(C)C4=CC(=O)CC[C@]4(C)[C@H]3CC[C@@]21C", "values": [{"measurement": "GI50", "setting": "[1]", "result": 37.4, "unit": "µM"}, {"measurement": "TGI", "setting": "[1]", "result": "> 100", "unit": "µM"}, {"measurement": "GI50", "setting": "[2]", "result": "> 100", "unit": "µM"}, {"measurement": "TGI", "setting": "[2]", "result": "> 100", "unit": "µM"}, {"measurement": "GI50", "setting": "[3]", "result": 28, "unit": "µM"}, {"measurement": "TGI", "setting": "[3]", "result": "> 100", "unit": "µM"}, {"measurement": "GI50", "setting": "[4]", "result": 46.9, "unit": "µM"}, {"measurement": "TGI", "setting": "[4]", "result": "> 100", "unit": "µM"}, {"measurement": "GI50", "setting": "[5]", "result": "> 91.5", "unit": "µM"}, {"measurement": "TGI", "setting": "[5]", "result": "> 100", "unit": "µM"}, {"measurement": "GI50", "setting": "[6]", "result": 42.6, "unit": "µM"}, {"measurement": "TGI", "setting": "[6]", "result": "> 100", "unit": "µM"}, {"measurement": "GI50", "setting": "[7]", "result": "> 100", "unit": "µM"}, {"measurement": "TGI", "setting": "[7]", "result": "> 100", "unit": "µM"}, {"measurement": "GI50", "setting": "[8]", "result": "> 55.8", "unit": "µM"}, {"measurement": "TGI", "setting": "[8]", "result": "> 100", "unit": "µM"}, {"measurement": "GI50", "setting": "[9]", "result": "> 77.6", "unit": "µM"}, {"measurement": "TGI", "setting": "[9]", "result": "> 100", "unit": "µM"}, {"measurement": "GI50", "setting": "[10]", "result": "> 71.8", "unit": "µM"}, {"measurement": "TGI", "setting": "[10]", "result": "> 100", "unit": "µM"}]}
{"smiles": "COC(=O)C1=C(C)NC(C)=C(C(=O)OC)C1/C=C(Cl)/C=C/c1ccccc1", "values": [{"measurement": "GI50", "setting": "[1]", "result": 21.6, "unit": "µM"}, {"measurement": "TGI", "setting": "[1]", "result": 55.7, "unit": "µM"}, {"measurement": "GI50", "setting": "[2]", "result": 20.7, "unit": "µM"}, {"measurement": "TGI", "setting": "[2]", "result": 49.3, "unit": "µM"}, {"measurement": "GI50", "setting": "[3]", "result": 17.2, "unit": "µM"}, {"measurement": "TGI", "setting": "[3]", "result": 30.9, "unit": "µM"}, {"measurement": "GI50", "setting": "[4]", "result": 18.4, "unit": "µM"}, {"measurement": "TGI", "setting": "[4]", "result": 44.3, "unit": "µM"}, {"measurement": "GI50", "setting": "[5]", "result": 30.4, "unit": "µM"}, {"measurement": "TGI", "setting": "[5]", "result": "> 100", "unit": "µM"}, {"measurement": "GI50", "setting": "[6]", "result": 18.2, "unit": "µM"}, {"measurement": "TGI", "setting": "[6]", "result": 38.3, "unit": "µM"}, {"measurement": "GI50", "setting": "[7]", "result": 13.4, "unit": "µM"}, {"measurement": "TGI", "setting": "[7]", "result": 50.4, "unit": "µM"}, {"measurement": "GI50", "setting": "[8]", "result": 19.5, "unit": "µM"}, {"measurement": "TGI", "setting": "[8]", "result": 38.5, "unit": "µM"}, {"measurement": "GI50", "setting": "[9]", "result": 22.7, "unit": "µM"}, {"measurement": "TGI", "setting": "[9]", "result": 65.9, "unit": "µM"}, {"measurement": "GI50", "setting": "[10]", "result": 16.1, "unit": "µM"}, {"measurement": "TGI", "setting": "[10]", "result": 30.8, "unit": "µM"}]}
{"smiles": "COc1cc(Nc2ccnc(NCCCNc3ccnc4cc(Cl)ccc34)n2)cc(OC)c1", "values": [{"measurement": "GI50", "setting": "[1]", "result": 1.79, "unit": "µM"}, {"measurement": "TGI", "setting": "[1]", "result": 4.42, "unit": "µM"}, {"measurement": "GI50", "setting": "[2]", "result": 1.62, "unit": "µM"}, {"measurement": "TGI", "setting": "[2]", "result": 3.26, "unit": "µM"}, {"measurement": "GI50", "setting": "[3]", "result": 0.842, "unit": "µM"}, {"measurement": "TGI", "setting": "[3]", "result": 2.73, "unit": "µM"}, {"measurement": "GI50", "setting": "[4]", "result": 2.9, "unit": "µM"}, {"measurement": "TGI", "setting": "[4]", "result": 12.5, "unit": "µM"}, {"measurement": "GI50", "setting": "[5]", "result": 1.58, "unit": "µM"}, {"measurement": "TGI", "setting": "[5]", "result": 5.1, "unit": "µM"}, {"measurement": "GI50", "setting": "[6]", "result": 2.68, "unit": "µM"}, {"measurement": "TGI", "setting": "[6]", "result": 14.2, "unit": "µM"}, {"measurement": "GI50", "setting": "[7]", "result": 1.91, "unit": "µM"}, {"measurement": "TGI", "setting": "[7]", "result": 3.54, "unit": "µM"}, {"measurement": "GI50", "setting": "[8]", "result": 0.423, "unit": "µM"}, {"measurement": "TGI", "setting": "[8]", "result": 2.08, "unit": "µM"}, {"measurement": "GI50", "setting": "[9]", "result": 1.81, "unit": "µM"}, {"measurement": "TGI", "setting": "[9]", "result": 3.63, "unit": "µM"}, {"measurement": "GI50", "setting": "[10]", "result": 1.67, "unit": "µM"}, {"measurement": "TGI", "setting": "[10]", "result": 3.13, "unit": "µM"}]}
